In patent US9986723B2, “Screen and use of therapeutics for pancreatic ductal adenocarcinoma” (The Board of Regents of the University of Texas System, priority 2014, dated 2018):

How the values were obtained:
[1] = system: pancreatic ductal adenocarcinoma (PDA) metastases; assay: Metastatic burden in five murine models of PDA under low dose warfarin; format: in vivo, mouse; details: four of the five PDA models; warfarin 0.5-1 mg/L drinking water
Description: (FIG. 23A) Primary tumor burden after therapy with warfarin. Therapy was initiated when implanted tumors were visible by ultrasound (˜10 mm^3) and consisted of control (normal drinking water) or warfarin, administered in the drinking water at 0.5 mg/L (immunocompetent mice: Pan02 (n=4, control; 3, warfarin), KIC (n=10, control; 8, warfarin)) or 1 mg/L (Panc-1 (n=10, control; 8, warfarin), AsPC-1 (n=8, control; 6, warfarin), Capan-1 (n=10, control; 7, warfarin)) and continued for 2-4 weeks until control mice were moribund. Therapy in KIC mice was initiated at 3 weeks of age and continued for 4 weeks. (FIG. 23B) Metastases were determined grossly upon sacrifice and confirmed by histological evaluation of the liver. […] Incidence of metastasis is also indicated. […] Tumor volume determined by serial ultrasound. […] Therapy with mAb 10C9 (250 μg 2×/week) was initiated when tumors were established as above and persisted for 4 weeks. […] Error bars indicate s.e.m.
Animal studies. […] Mice with established tumors, as determined by sonography were randomized to receive normal drinking water or water containing 1 mg/L (˜3.0 μM) warfarin for experiments in immunocompromised mice and 0.5 mg/L (˜1.5 μM) in experiments in immunocompetent animals with or without gemcitabine 25 mg/kg twice weekly depending on experimental design.

[2] = system: Mia PaCa-2 cells; assay: Spheroid assay in matrigel (3D culture); format: cell-based, human; details: warfarin 200 ng/ml, 7 days
Description: FIGS. 25A-I. Axl inhibition reduces colony formation and enhances chemotherapy. (FIGS. 25A-C) parental Mia PaCa-2 cells or Mia PaCa-2 cells stably transfected with shRNA targeting Axl (Mia shAxl) were grown as spheroids in matrigel for 7 days in the presence or absence of warfarin (200 ng/ml), n=4/condition. Mia PaCa-2 cell colonies form large stellate colonies characteristic of invasive tumor growth. Colonies and cognate cell projections were imaged (FIG. 25A) with a Nikon Phase contrast microscope using 40× and 200× magnification. Mean total colony number (FIG. 25B) and total colony area+/−s.d. (FIG. 25C) reflective of invasive growth were calculated using Image J image analysis. […] (FIG. 25E) liver metastases were quantified after intrasplenic injection of C5LM2 cells. […] Mice were sacrificed when control treated animals were moribund and primary and metastatic burden was determined. […]
For spheroid assays, matrigel was coated on 18×18 mm glass cover-slides in a 35 mm culture dish, using Reduced Growth Factor Matrigel (BD Bioscience) as described previously (Gjerdrum et al., 2010; Lee et al., 2007). […] Quantitative analysis of 3D organotypic structures was performed using Image J analysis software. Total number of established structures and the ability of established structures to migrate into the BM (Total area) were quantified and compared.

[3] = system: Capan-EMT cells; assay: Capan-EMT cells (Capan-1 on collagen with TGFβ), ICC; format: cell-based, human; details: SFM overnight
Description: FIGS. 32A-C. Acquisition of Axl expression sensitizes Capan-EMT cells to warfarin. (FIG. 32A) Capan-1 cells cultured on collagen were analyzed by flow cytometry for Axl expression. The positive gate was set using a control IgG and 10C9 was used to detect Axl. […] (FIG. 32B) Capan-EMT cells were cultured in SFM overnight in the absence (control) or presence of warfarin and expression Axl, E-Cadherin, and cleaved caspase 3 was determined by ICC. Representative images are shown. (FIG. 32C) The expression Zeb1, Snail, and Twist was determined by qPCR in Capan-1 and Capan-EMT cells.
In vitro epithelial to mesenchymal transition assays. In vitro, mesenchymal transition was induced by incubating cells on chamber slides coated with collagen and adding TGF-β (20 ng/ml) to media with 5% serum for 48 hours. Media was then replaced with 1% serum and fresh TGF-β with or without warfarin (2 μM) for an additional 48 hours. Cells were the evaluated by immunocytochemistry by fixing in acetone, permeabilizing with 0.5% Brij, and incubating overnight with primary antibody: Axl, p-Axl, (R&D Systems); Vimentin (phosphoSolutions); Zeb1, E-Cadherin, and β-Catenin (Santa Cruz). The effect of Gas6 signaling on EMT was evaluated by seeding cells overnight and incubating with Gas6 (100 ng/ml) with or without warfarin for 48 hours. Cells were evaluated by ICC as described.

## CC(=O)CC(c1ccccc1)c1c(O)c2ccccc2oc1=O (racemic) [Warfarin]
[1]
  metastatic burden: consistently and potently inhibited metastatic burden
[2]
  tumor cell sphere formation and invasiveness in 3D culture: inhibited
[3]
  sensitivity to warfarin (Axl, E-cadherin, cleaved caspase-3): sensitive
